Laboratory results taken from patent publication US20120251551A1, “Substituted (Heteroarylmethyl)thiohydantoins” (BAYER PHARMA AKTIENGESELLSCHAFT, priority 2009, published 2012).
Positions count from the first letter of the chain named.

What was measured:
[1] = target: T1, wild-type human androgen receptor (Homo sapiens, UniProt P10275); assay: Cell-based transactivation assay for wild-type human androgen receptor (PC-3 cells, MMTV-luciferase reporter)
T1 construct: expressed in transfected cells
T1 sequence (P10275 1-920): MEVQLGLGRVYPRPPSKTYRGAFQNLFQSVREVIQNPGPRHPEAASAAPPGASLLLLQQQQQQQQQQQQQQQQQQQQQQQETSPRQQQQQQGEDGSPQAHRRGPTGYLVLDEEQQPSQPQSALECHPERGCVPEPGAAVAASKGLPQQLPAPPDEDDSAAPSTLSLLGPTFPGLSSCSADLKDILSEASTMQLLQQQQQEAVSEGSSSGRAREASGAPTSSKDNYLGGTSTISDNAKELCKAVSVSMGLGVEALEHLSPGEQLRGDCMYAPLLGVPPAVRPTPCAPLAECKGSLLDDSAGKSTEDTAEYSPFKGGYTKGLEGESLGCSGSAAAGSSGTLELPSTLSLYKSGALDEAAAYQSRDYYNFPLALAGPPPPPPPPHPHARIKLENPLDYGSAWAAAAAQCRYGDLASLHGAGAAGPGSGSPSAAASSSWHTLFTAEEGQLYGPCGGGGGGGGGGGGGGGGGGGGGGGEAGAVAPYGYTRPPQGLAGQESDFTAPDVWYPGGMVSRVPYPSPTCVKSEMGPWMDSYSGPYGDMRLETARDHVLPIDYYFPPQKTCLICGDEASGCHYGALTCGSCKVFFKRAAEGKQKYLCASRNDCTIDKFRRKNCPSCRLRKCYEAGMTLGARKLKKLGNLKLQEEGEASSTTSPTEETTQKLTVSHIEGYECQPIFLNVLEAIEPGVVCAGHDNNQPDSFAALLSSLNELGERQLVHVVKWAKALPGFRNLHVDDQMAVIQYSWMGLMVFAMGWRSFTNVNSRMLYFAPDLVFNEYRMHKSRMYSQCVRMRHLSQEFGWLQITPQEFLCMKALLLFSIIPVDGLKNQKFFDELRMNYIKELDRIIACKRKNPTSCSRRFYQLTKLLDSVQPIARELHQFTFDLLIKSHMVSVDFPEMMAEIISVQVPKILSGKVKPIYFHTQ
Protocol: Cell-Based Transactivation Assay for Wild-Type Human Androgen Receptor
PC-3 cells (Kaighn et al., Invest. Urol. 17:16-23, 1979) stably transfected with the human androgen receptor (Swiss-Prot Acc. No. P10275, Entry Version 159, Sequence Version 2) and a reporter plasmid based on pGL4.14 (#E6691, Promega Corporation, Madison, Wis., USA) containing the MMTV promoter (Cato et al., EMBO J. 6:363-8, 1987) were used. They were grown in 5% charcoal-stripped medium and seeded at a concentration of 1000 cells per well in a 384-well plate. For determination of antagonistic activity, the plate additionally contained the compound to be tested at a concentration range varying from 5.12×10^−12 to 1×10^−5 M. The assay was performed in presence of 1×10^−10 R1881 (also known as methyltrienolone). After overnight incubation at 37° C. in a 5% CO2 atmosphere, 15 μl of Steady Glo Lysis and Detection reagent (Steady Glo Luciferase assay system E2550 from Promega Corporation. Madison, Wis., USA) were added. IC50 was calculated for anti-androgenic activity as well as percentage inhibition in presence of 2 μM compound in comparison to non-stimulated luciferase signal. Agonistic activity was determined using the same concentration range of compound in the absence of R1881 by measuring Luciferase activity as above. EC50 was calculated for androgenic activity. Assay/read plates were used (Polystyrol; 384, NV-white cell culture plates; Perkin Elmer).

[2] = target: T2, human androgen receptor W741C mutant (Homo sapiens, UniProt P10275, W742C); assay: Cell-based transactivation assay for human androgen receptor mutant W741C
T2 construct: expressed in transfected cells; host or cells: PC-3 cells, transient transfection with a pSG5-derived plasmid
T2 sequence (P10275 1-920 W742C): T1 sequence (P10275 1-920) with W742C
Protocol: Cell-Based Transactivation Assay for Human Androgen Receptor Mutant W741L or W741C
PC-3 cells (Kaighn et al., Invest. Urol. 17:16-23, 1979) were grown in 5% charcoal-stripped medium and seeded at a concentration of 10000 cells per well in a 96-well plate. They were transiently transfected with a pSG5-derived plasmid (#216201 from Stratagene, La Jolla, Calif., USA) coding for the human androgen receptor W741L or W741C mutant Mara et al., Cancer Research, 63: 149-153, 2003) and an MMTV-Luciferase reporter plasmid based on pGL4.14 14 (#E6691, Promega Corporation, Madison, Wis., USA). The compound to be tested was added at a concentration range varying from 1×10^−9 to 1×10 M together with 1×10^−10 R1881. After 24 h incubation at 37° C. in a 5% CO2 atmosphere, 100 μl of Steady Glo Lysis and Detection reagent (Steady Glo Luciferase assay system E2550 from Promega Corporation. Madison, Wis., USA) were added. Antagonistic activity was determined by measuring Luciferase activity in a Victor 3 Luminometer (PerkinElmer, Waltham, Mass., USA) using the Steady Glo Luciferase Assay (E2550, Promega). IC50 values were calculated for anti-androgenic activity.

[3] = Determination of metabolic stability in vitro (calculation of hepatic in vivo blood clearance); type: in vitro ADME; conditions: pH 7.4, human liver microsomes, calculated from half-life, read-out: calculated hepatic in vivo blood clearance (CL) (converted)
Protocol: Determination of Metabolic Stability In Vitro (Including Calculation of Hepatic In Vivo Blood Clearance (CL) and of Maximal Oral Bioavailability (Fmax))
The metabolic stability of test compounds in vitro was determined by incubating them at 1 μM with a suspension of human liver microsomes in 100 mM phosphate buffer, pH7.4 (NaH2PO4×H2O+Na2HPO4×2H2O) at a protein concentration of 0.5 mg/ml and at 37° C. The reaction was activated by adding a co-factor mix containing 1.2 mg NADP, 3 IU glucose-6-phosphate dehydrogenase, 14.6 mg glucose-6-phosphate and 4.9 mg MgCl2 in phosphate buffer, pH 7.4. Organic solvent in the incubations was limited to <0.2% dimethylsulfoxide (DMSO) and <1% methanol. During incubation, the microsomal suspensions were continuously shaken and aliquots were taken at 2, 8, 16, 30, 45 and 60 min, to which equal volumes of cold methanol were immediately added. Samples were freezed at −20° C. over night, subsequently centrifuged for 15 minutes at 3000 rpm and the supernatant was analyzed with an Agilent 1200 HPLC-system with LCMS/MS detection.
The half-life of a test compound was determined from the concentration-time plot. From the half-life the intrinsic clearances were calculated. Together with the additional parameters liver blood flow, specific liver weight and microsomal protein content the hepatic in vivo blood clearance (CL) and the maximal oral bioavailability (Fmax) were calculated for the different species. The following parameter values were used: Liver blood flow—1.3 l/h/kg human; specific liver weight—21 g/kg human; microsomal protein content—40 mg/g.
With the described assay only phase-I metabolism of microsomes is reflected, e.g. typically oxidoreductive reactions by cytochrome P450 enzymes and flavin mono-oxygenases (FMO) and hydrolytic reactions by esterases (esters and amides).

## CN1C(=S)N(c2ccc(C#N)c(C(F)(F)F)c2)C(=O)C1(C)C [2-(Trifluoromethyl)-4-(3,4,4-trimethyl-5-oxo-2-thioxoimidazolidin-1-yl)benzonitrile, reference compound]
[1]
  EC50: 7.97 nM
[2]
  IC50: 21.2 nM

## CC1(C)C(=O)N(c2ccc(C#N)c(C(F)(F)F)c2)C(=S)N1CCCCO [4-[3-(4-Hydroxybutyl)-4,4-dimethyl-5-oxo-2-thioxoimidazolidin-1-yl]-2-(trifluoromethyl)benzonitrile, reference compound]
[1]
  EC50: 8.13 nM
[2]
  IC50: 27.1 nM

## CC1(C)C(=O)N(c2ccc(C#N)c(C(F)(F)F)c2)C(=S)N1Cc1ccc(F)cc1 [Comparative data^4]
[1]
  EC50: 1.79 nM
[2]
  IC50: > 1000 nM

## CC1(C)C(=O)N(c2ccc(C#N)c(C(F)(F)F)c2)C(=S)N1Cc1ccccc1 [Comparative data^4]
[1]
  EC50: 46.4 nM
[2]
  IC50: 142 nM

## CC1(C)C(=O)N(c2ccc(C#N)c(C(F)(F)F)c2)C(=S)N1Cc1ccc(-n2ccnc2)nc1 [Example 1, 4-(3-{[6-(1H-Imidazol-1-yl)pyridin-3-yl]methyl}-4,4-dimethyl-5-oxo-2-thioxoimidazolidin-1-yl)-2-(trifluoromethyl)benzonitrile]
[1]
  EC50: > 10000 nM
[2]
  IC50: 216 nM
[3]
  CLhep predicted at 1 µM: 4.33 mL/min/kg

## CC1(C)C(=O)N(c2ccc(C#N)c(C(F)(F)F)c2)C(=S)N1Cc1ccc(C(F)(F)F)nc1 [Example 2, 4-(4,4-Dimethyl-5-oxo-2-thioxo-3-{[6-(trifluoromethyl)pyridin-3-yl]methyl}imidazolidin-1-yl)-2-(trifluoromethyl)benzonitrile]
[1]
  EC50: 5430 nM
[3]
  CLhep predicted at 1 µM: 6.5 mL/min/kg

## CC1(C)C(=O)N(c2ccc(C#N)c(C(F)(F)F)c2)C(=S)N1Cc1ccc(N2CCOCC2)nc1 [Example 4, 4-(4,4-Dimethyl-3-{[6-(morpholin-4-yl)pyridin-3-yl]methyl}-5-oxo-2-thioxoimidazolidin-1-yl)-2-(trifluoromethyl)benzonitrile]
[1]
  EC50: > 10000 nM
[2]
  IC50: 270 nM

## CC1(C)C(=O)N(c2ccc(C#N)c(C(F)(F)F)c2)C(=S)N1Cc1ccc(N2CCS(=N)(=O)CC2)nc1 [Example 9, 4-(3-{[6-(1-Imino-1-oxido-1λ^6-thiomorpholin-4-yl)pyridin-3-yl]methyl}-4,4-dimethyl-5-oxo-2-thioxoimidazolidin-1-yl)-2-(trifluoromethyl)benzonitrile]
[1]
  EC50: > 10000 nM
[3]
  CLhep predicted at 1 µM: 8 mL/min/kg

## CC(C)(O)COc1ccc(CN2C(=S)N(c3ccc(C#N)c(C(F)(F)F)c3)C(=O)C2(C)C)cn1 [Example 10, 4-(3-{[6-(2-Hydroxy-2-methylpropoxy)pyridin-3-yl]methyl}-4,4-dimethyl-5-oxo-2-thioxoimidazolidin-1-yl)-2-(trifluoromethyl)benzonitrile]
[1]
  EC50: > 10000 nM
[2]
  IC50: 115 nM
[3]
  CLhep predicted at 1 µM: 5.83 mL/min/kg

## Cc1nc(C(F)(F)F)ccc1CN1C(=S)N(c2ccc(C#N)c(C(F)(F)F)c2)C(=O)C1(C)C [Example 13, 4-(4,4-Dimethyl-3-{[2-methyl-6-(trifluoromethyl)pyridin-3-yl]methyl}-5-oxo-2-thioxoimidazolidin-1-yl)-2-(trifluoromethyl)benzonitrile]
[1]
  EC50: > 10000 nM
[3]
  CLhep predicted at 1 µM: 3.17 mL/min/kg
